Molecules are shown by their SMILES. Counter-ions that a name gives are not always drawn. Like-named read-outs stand apart in the source and are kept apart here.

One assay concerns Caco-2. Nature of the assay: In vitro cytotoxicity, CCK-8 assay, Caco-2. It is filed as cell-based. To be noted: Homo sapiens, Caco-2, 48 h.
Assay [1] deals with PANC-1 cells (zebrafish pancreatic cancer transplant model). The assay can be described thus: In vivo cytotoxicity, zebrafish pancreatic cancer transplant model. To be noted: 48 h, n = 10.
The test system of a further assay is HCT-8 cells. The assay can be described thus: In vitro cytotoxicity, CCK-8 assay, HCT-8. To be noted: Homo sapiens, HCT-8, 48 h. It is filed as cell-based.
The subject of the next assay is PANC-1. The assay can be described thus: In vitro cytotoxicity, CCK-8 assay, PANC-1. It is filed as cell-based. To be noted: Homo sapiens, PANC-1, 48 h.
Assay [2] concerns C. difficile infection (CDI). To be noted: cited from earlier work; for recurrence of CDI: patients, after treatment; for response in patients: treatment of mild to moderate episodes of CDI.
The next assay has as its system CD strain ATCC 43255. Nature of the assay: CDI mouse model (survival, recurrence, weight, clinical scores).

For the compound `C=C1/C=C/C(=O)N(C)CC(=O)N[C@@H]([C@H](O)C(N)=O)C(=O)O[C@@H]([C@H](C)CCCCCCCCCCCC(C)CC)[C@H](C)C(=O)N1` (stereo partly shown) [Rakicidin B1], the IC50 with Caco-2 (read-out: IC50 Caco-2, hypoxia (5% CO2, 95% N2), 48 h, CCK-8) is 457 nM; in the assay with Caco-2 (read-out: IC50 Caco-2, normoxia, 48 h drug exposure, CCK-8), 586 nM; in the assay with HCT-8 cells (read-out: IC50 HCT-8, hypoxia (5% CO2, 95% N2), 48 h, CCK-8) it was 430 nM; with HCT-8 cells (read-out: IC50 HCT-8, normoxia, 48 h drug exposure, CCK-8), 519 nM; with PANC-1 (read-out: IC50 PANC-1, hypoxia (5% CO2, 95% N2), 48 h, CCK-8), 486 nM; with PANC-1 (read-out: IC50 PANC-1, normoxia, 48 h drug exposure, CCK-8), 815 nM. Also, the “Fluorescence Intensity (S, Mean ± SE)” value in assay [1] (22.4 nM in water) is recorded as 773,141 ± 49,850; in assay [1] (67.2 nM in water), 662,225 ± 41,743; in assay [1] (201.5 nM in water), 527,824 ± 34,172. In assay [1] (Danio rerio, PANC-1, 22.4 nM in water, read-out: Inhibition Rate (%)), the inhibition at 0.0224 µM amounted to 17%. Besides, in assay [1] (Danio rerio, PANC-1, 67.2 nM in water, read-out: Inhibition Rate (%)), the inhibition at 0.0672 µM was 29%. Moreover, the inhibition at 0.2015 µM in assay [1] (Danio rerio, PANC-1, 201.5 nM in water, read-out: Inhibition Rate (%)) stood at 43%.
In the case of `Nc1ccn([C@@H]2O[C@H](CO)[C@@H](O)C2(F)F)c(=O)n1` [gemcitabine hydrochloride], in assay [1] (66.7 µM in water), the “Fluorescence Intensity (S, Mean ± SE)” value was 540,311 ± 59,245 ^1. Also, the inhibition at 66.7 µM in assay [1] (Danio rerio, PANC-1, 66.7 µM in water, read-out: Inhibition Rate (%)) stood at 42%.
As to `Cc1ncc([N+](=O)[O-])n1CCO` [metronidazole], in assay [2], the “recurrence of CDI” value is given as 25–30% and the response in patients result is “approximately 90%”.
As to `CN[C@H](CC(C)C)C(=O)N[C@H]1C(=O)N[C@@H](CC(N)=O)C(=O)N[C@H]2C(=O)N[C@H]3C(=O)N[C@H](C(=O)N[C@H](C(=O)O)c4cc(O)cc(O)c4-c4cc3ccc4O)[C@H](O)c3ccc(c(Cl)c3)Oc3cc2cc(c3O[C@@H]2O[C@H](CO)[C@@H](O)[C@H](O)[C@H]2O[C@H]2C[C@](C)(N)[C@H](O)[C@H](C)O2)Oc2ccc(cc2Cl)[C@H]1O` [vancomycin], the “mortality rate after stopping treatment (recurrence of infection)” value in the assay with CD strain ATCC 43255 (C57BL/6 mice, vancomycin 20 mg/kg once a day for seven days, monitored until day 21) is reported as 40%. Further, the “body weight changes and clinical scores after stopping treatment” value with CD strain ATCC 43255 (infected C57BL/6 mice, after seven-day treatment, until day 21) is “significant weight loss and a sharp increase in clinical scores”. Also, the “body weight changes and clinical scores while receiving treatment” value in the assay with CD strain ATCC 43255 (infected C57BL/6 mice, during seven-day treatment) is “did not experience weight loss or an increase in clinical scores”. Also, the “recurrence of infection after treatment ended” value in the assay with CD strain ATCC 43255 (infected C57BL/6 mice, monitored until day 21) is reported as “recurrence of infection is observed”. Moreover, in assay [2], the “recurrence of CDI” value is given as 25–30% and the response in patients result is on record as “approximately 90%”.
